Measurements published in US20020187514A1 (priority 1999, published 2002).

Columns and labels:
[1] = tested on: Ahenylate Cyclase, Forskolin; experiment: Ahenylate Cyclase, Forskolin; [3H]Forskolin; type: binding; conditions: 10^−5 M
Purinergic, P2Y = Purinergic, P2Y (Human); [35S]-ATPas; type: binding; conditions: 10^−5 M
[2] = tested on: Nicotinic (a-bungarotoxin insensitive); type: binding; conditions: 10^−5 M
[3] = tested on: Glutamate, NMDA, Glycine (Stry-insens Site); type: binding; conditions: 10^−5 M
[4] = tested on: Protein Phosphatase, PP2B (Calcineurin); experiment: Protein Phosphatase, PP2B (Calcineurin); substrate pNPP; type: biochemical; conditions: 10^−5 M
Opiate, Delta 1 = Opiate, Delta 1 (UniProt P33533); type: binding
Chain of Opiate, Delta 1 (P33533 whole entry): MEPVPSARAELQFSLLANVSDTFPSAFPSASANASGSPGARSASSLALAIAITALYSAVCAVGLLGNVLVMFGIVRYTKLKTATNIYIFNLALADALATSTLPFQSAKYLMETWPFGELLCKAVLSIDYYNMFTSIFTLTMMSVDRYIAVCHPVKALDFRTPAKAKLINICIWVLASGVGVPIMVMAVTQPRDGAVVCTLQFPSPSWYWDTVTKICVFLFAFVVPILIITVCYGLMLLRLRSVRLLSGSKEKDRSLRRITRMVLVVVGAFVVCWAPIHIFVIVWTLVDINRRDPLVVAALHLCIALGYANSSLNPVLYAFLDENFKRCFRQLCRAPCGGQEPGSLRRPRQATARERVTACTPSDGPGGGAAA

Serotonin, 5HT1A = Serotonin, 5HT1A (Homo sapiens, UniProt P08908); experiment: biochemical; type: binding; conditions: read-out: Pass 1 (10^−5 M) % Inhibition
Chain of Serotonin, 5HT1A (P08908 whole entry): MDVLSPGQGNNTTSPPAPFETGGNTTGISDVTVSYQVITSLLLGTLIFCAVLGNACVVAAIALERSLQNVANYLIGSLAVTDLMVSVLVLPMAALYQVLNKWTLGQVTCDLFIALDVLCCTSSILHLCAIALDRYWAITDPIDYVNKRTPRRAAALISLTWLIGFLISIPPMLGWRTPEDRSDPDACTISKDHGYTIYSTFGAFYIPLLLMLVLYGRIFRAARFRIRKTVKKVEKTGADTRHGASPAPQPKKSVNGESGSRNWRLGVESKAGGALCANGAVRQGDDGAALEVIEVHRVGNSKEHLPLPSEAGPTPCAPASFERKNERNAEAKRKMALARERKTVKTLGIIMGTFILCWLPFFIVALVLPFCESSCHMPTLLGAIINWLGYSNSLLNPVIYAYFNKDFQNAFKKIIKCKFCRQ

[5] = tested on: Glutamic Acid Decarboxylase; experiment: Glutamic Acid Decarboxylase; substrate [14C]Glutamic acid; type: biochemical; conditions: 10^−5 M
[6] = tested on: Adenosine Transport (cs + es); experiment: Adenosine Transport (cs + es) (Human); [3H]-Adenosine; type: biochemical; conditions: 10^−5 M
[7] = target: Calcium Channel, Type L (Benzothiazepine Site) (Rattus norvegicus, UniProt P22002); experiment: Calcium Channel, Type L (Benzothiazepine Site); [3H]Diltiazem, cis(+); type: binding; conditions: read-out: Pass 1 (10^−5 M) % Inhibition
[8] = tested on: GABA, Chloride, TBOB Site; type: binding
[9] = target: T1, Platelet Activating Factor, PAF (Oryctolagus cuniculus, UniProt G1TEI7); experiment: Platelet Activating Factor, PAF; [3H]Hexadecyl, PAF; type: binding; conditions: read-out: Pass 1 (10^−5 M) % Inhibition
T1 construct: no other source notation after assay name denotes animal cell or animal tissue source; from tissue

Esterase = Esterase (Human); substrate Acetylthiocholine; type: biochemical
Complement C5a = Complement C5a (Homo sapiens, UniProt P21730); experiment: Complement C5a (Human); [125I]BH-rC5a; type: binding; conditions: read-out: Pass 1 (10^−5 M) % Inhibition
[10] = tested on: Epidermal Growth Factor, EGF; experiment: Epidermal Growth Factor, EGF; [125I]EGF; type: binding; conditions: 10^−5 M
Estrogen = experiment: Estrogen; [125I]3,17B-Estradiol, 16a; type: binding; conditions: 10^−5 M
Muscarinic, M1 = Muscarinic, M1 (Homo sapiens, UniProt P11229); experiment: biochemical; conditions: read-out: Pass 1 (10^−5 M) % Inhibition
Chain of Muscarinic, M1 (P11229 whole entry): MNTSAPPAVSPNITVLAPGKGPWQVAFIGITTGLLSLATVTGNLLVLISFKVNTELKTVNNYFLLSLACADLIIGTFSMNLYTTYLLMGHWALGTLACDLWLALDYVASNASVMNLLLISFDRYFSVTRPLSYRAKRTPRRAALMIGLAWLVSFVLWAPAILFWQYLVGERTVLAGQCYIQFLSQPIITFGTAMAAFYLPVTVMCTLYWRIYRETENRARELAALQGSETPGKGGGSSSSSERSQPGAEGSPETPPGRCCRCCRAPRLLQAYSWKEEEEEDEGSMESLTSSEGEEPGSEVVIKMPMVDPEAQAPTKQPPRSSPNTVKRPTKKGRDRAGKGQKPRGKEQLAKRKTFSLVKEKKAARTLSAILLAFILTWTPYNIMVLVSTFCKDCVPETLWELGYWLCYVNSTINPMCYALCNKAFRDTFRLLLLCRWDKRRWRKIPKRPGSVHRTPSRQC

Sodium, Site 1 = type: binding
Protein Kinase C, PDBu = type: binding
GABA A, Agonist Site = type: binding
[11] = tested on: Inositol Triphosphate, IP3; experiment: Inositol Triphosphate, IP3; [3H]IP3; type: binding; conditions: 10^−5 M
[12] = tested on: Cholecystokinin, CCK2 (CCKB); experiment: Cholecystokinin, CCK2 (CCKB); [125I]CCK-8; type: binding; conditions: 10^−5 M
[13] = tested on: Atrial Natriuretic Peptide, ANP A; experiment: Atrial Natriuretic Peptide, ANP A; [125I]ANP (Rat); type: binding
[14] = tested on: Potassium Channel, Ca2+ Act., VI; experiment: Potassium Channel, Ca2+ Act., VI; [125I]Apamin; type: binding; conditions: 10^−5 M
Neurokinin, NK3 (NKB) = type: binding; conditions: 10^−5 M
Dopamine, D5 = target: T2, Dopamine, D5 (Homo sapiens, UniProt P21918); experiment: biochemical; type: binding; conditions: read-out: Pass 1 (10^−5 M) % Inhibition
T2 construct: expressed in transfected cells
T2 sequence (P21918 whole entry): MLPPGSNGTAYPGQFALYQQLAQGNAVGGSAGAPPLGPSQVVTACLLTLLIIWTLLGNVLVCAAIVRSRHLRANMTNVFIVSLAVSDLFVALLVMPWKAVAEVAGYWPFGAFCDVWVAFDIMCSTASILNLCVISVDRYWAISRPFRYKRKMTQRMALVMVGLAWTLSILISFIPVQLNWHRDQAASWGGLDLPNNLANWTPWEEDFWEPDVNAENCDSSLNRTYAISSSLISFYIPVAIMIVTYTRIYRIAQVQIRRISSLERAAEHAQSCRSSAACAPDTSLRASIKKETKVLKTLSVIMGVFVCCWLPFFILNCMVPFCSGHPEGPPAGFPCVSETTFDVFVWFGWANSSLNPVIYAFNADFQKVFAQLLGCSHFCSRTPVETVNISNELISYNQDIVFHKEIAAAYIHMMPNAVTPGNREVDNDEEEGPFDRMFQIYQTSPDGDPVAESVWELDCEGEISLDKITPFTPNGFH

Opiate, Mu = Opiate, Mu (UniProt P33535); type: binding
Chain of Opiate, Mu (P33535 whole entry): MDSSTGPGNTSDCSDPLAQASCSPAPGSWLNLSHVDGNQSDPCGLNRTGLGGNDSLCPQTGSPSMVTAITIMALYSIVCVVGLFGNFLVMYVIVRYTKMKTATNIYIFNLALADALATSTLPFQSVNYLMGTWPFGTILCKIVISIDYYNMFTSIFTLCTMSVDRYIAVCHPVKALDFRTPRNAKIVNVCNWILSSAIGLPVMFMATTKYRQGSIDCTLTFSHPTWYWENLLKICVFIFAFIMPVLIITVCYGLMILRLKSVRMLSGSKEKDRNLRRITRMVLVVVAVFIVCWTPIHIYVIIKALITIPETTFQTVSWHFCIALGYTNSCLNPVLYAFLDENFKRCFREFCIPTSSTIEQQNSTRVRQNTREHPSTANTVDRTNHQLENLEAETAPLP

Serotonin, 5HT2C = Serotonin, 5HT2C (UniProt K7GSR7); type: binding
Chain of Serotonin, 5HT2C (K7GSR7 1-457): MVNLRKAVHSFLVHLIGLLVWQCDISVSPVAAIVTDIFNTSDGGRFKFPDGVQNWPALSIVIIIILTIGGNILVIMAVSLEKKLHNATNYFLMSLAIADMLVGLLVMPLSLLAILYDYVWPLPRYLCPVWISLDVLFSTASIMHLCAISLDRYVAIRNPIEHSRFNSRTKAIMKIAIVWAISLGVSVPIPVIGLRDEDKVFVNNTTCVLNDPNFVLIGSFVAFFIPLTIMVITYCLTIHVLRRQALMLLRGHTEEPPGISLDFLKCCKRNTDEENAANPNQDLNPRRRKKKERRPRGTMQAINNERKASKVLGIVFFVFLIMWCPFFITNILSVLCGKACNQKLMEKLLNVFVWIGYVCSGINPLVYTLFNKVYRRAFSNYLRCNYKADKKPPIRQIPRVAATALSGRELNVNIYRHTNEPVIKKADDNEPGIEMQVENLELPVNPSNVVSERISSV

Adrenergic, Alpha 1B = Adrenergic, Alpha 1B (UniProt P15823); experiment: Adrenergic, Alpha 1B; [3H]-7-MeOxy-Prazosin; type: binding
Chain of Adrenergic, Alpha 1B (P15823 whole entry): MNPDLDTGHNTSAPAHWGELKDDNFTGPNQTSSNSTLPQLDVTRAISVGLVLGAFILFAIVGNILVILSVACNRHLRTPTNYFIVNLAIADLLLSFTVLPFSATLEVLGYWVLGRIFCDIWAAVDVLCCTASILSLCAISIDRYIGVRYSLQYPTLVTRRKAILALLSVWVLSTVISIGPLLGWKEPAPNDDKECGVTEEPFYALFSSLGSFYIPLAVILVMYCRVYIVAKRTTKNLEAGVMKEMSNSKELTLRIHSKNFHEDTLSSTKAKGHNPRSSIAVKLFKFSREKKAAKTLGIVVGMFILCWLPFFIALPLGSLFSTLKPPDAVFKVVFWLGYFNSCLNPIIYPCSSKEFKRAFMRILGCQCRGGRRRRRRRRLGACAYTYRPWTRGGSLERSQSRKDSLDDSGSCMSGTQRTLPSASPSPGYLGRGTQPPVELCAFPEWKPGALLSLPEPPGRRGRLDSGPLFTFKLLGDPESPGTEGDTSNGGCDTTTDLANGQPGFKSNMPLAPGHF

[15] = target: Benzodiazepine, peripheral (Homo sapiens, UniProt P30536); experiment: biochemical; type: binding; conditions: read-out: Pass 1 (10^−5 M) % Inhibition
Chain of Benzodiazepine, peripheral (P30536 whole entry): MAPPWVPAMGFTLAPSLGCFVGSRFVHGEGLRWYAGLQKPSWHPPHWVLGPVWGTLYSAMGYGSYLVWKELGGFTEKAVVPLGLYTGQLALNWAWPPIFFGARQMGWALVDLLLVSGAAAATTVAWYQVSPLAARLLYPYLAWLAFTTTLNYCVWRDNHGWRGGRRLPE

Cannabinoid, CB2 = target: T3, Cannabinoid, CB2 (Homo sapiens, UniProt P34972); experiment: Cannabinoid, CB2 (Human recombinant); [3H]-CP55940; type: binding; conditions: read-out: Pass 1 (10^−5 M) % Inhibition
T3 construct: expressed in transfected cells

Adrenergic, Alpha 1A = Adrenergic, Alpha 1A (UniProt P43140); experiment: Adrenergic, Alpha 1A; [3H]-7-MeOxy-Prazosin; type: binding
Chain of Adrenergic, Alpha 1A (P43140 whole entry): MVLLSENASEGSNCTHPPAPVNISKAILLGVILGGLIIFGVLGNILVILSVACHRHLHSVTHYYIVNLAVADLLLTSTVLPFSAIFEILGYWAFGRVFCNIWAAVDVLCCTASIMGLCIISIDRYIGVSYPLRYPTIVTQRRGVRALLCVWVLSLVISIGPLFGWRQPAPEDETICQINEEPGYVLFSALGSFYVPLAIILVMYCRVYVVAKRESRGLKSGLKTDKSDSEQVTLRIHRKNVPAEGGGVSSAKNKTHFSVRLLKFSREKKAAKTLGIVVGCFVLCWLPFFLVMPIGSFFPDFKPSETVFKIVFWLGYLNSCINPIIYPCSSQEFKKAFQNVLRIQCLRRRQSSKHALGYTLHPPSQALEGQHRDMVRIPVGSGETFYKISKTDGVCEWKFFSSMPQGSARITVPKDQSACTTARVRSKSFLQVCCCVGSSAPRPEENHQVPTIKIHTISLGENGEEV

Leukotrine B4, LTB4 = experiment: Leukotrine B4, LTB4; [3H]LTB4; type: binding; conditions: 10^−5 M
Imidazoline, I2, central = experiment: Imidazoline, I2, central; [3H]2-BFI; type: binding; conditions: 10^−5 M
Dopamine, D1 = Dopamine, D1 (Homo sapiens, UniProt P21728); experiment: biochemical; conditions: read-out: Pass 1 (10^−5 M) % Inhibition
Chain of Dopamine, D1 (P21728 whole entry): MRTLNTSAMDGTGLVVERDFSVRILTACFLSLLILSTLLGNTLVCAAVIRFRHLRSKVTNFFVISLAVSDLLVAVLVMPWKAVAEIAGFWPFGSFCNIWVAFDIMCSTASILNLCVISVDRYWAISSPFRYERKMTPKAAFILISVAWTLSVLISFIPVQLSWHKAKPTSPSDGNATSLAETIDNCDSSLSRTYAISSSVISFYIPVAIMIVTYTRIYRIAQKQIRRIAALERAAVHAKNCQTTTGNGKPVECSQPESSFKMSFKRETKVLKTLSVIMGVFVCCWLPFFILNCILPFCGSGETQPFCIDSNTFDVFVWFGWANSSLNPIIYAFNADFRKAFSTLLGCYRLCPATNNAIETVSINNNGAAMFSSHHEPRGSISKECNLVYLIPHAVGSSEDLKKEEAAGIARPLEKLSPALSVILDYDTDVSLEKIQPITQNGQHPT

[16] = tested on: Protein Tyrosine Phosphatase, PTP-B; experiment: Protein Tyrosine Phosphatase, PTP-B (Human); substrate pNPP; type: biochemical; conditions: 10^−5 M; footnote: not confirmed in QA/QC follow-up
Galanin = experiment: Galanin; [I125]Galanin; type: binding
[17] = target: T4, Monoamine Oxidase B, Peripheral (Rattus norvegicus, UniProt P19643); experiment: Monoamine Oxidase B, Peripheral; substrate [14C]Phenylethylamine; type: biochemical; conditions: read-out: Pass 1 (10^−5 M) % Inhibition
T4 construct: no other source notation after assay name denotes animal cell or animal tissue source; from tissue
T4 sequence (P19643 whole entry): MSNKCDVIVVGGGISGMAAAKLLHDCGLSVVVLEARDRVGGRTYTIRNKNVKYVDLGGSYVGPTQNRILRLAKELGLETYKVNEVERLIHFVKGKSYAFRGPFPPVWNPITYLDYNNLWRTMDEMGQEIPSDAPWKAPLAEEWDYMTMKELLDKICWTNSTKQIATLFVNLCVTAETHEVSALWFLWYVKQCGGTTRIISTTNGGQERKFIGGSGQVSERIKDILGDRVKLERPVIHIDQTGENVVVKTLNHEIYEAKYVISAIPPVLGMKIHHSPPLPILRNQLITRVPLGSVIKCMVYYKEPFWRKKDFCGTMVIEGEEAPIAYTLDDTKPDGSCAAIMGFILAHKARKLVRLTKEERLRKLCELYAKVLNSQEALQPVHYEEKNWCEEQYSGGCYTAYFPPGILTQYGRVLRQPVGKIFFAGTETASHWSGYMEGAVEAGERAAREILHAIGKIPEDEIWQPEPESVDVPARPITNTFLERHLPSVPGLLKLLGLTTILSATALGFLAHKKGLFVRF

Serotonin, 5HT5A = target: T5, Serotonin, 5HT5A (Homo sapiens, UniProt P47898); experiment: biochemical; type: binding; conditions: read-out: Pass 1 (10^−5 M) % Inhibition
T5 construct: expressed in transfected cells

Leukotrine D4, LTB4 = experiment: Leukotrine D4, LTB4; [3H]LTD4; type: binding; conditions: 10^−5 M
Sodium, Site 2 = type: binding
Imidazoline, I1 = experiment: Imidazoline, I1; [125I]-Clonidine; type: binding; conditions: 10^−5 M
Testosterone (cytosolic) = Testosterone (cytosolic) (UniProt P15207); type: binding
Neurokinin, NK1 = type: binding; conditions: 10^−5 M
Clozapine = type: binding

COC(=O)[C@H]1[C@@H](OC(=O)c2ccccc2)C[C@@H]2CC[C@H]1N2C [cocaine]
Pass 1 (10^−5 M) % Inhibition [1]: 6.27% | Pass 1 (10^−5 M) % Inhibition (Purinergic, P2Y): 16.43% | Pass 1 (10^−5 M) % Inhibition [2]: 12.28% | Pass 1 (10^−5 M) % Inhibition [3]: −1.56% | Pass 1 (10^−5 M) % Inhibition [4]: −10.37% | Pass 1 (10^−5 M) % Inhibition (Opiate, Delta 1): 2.51% | inhibition at 10 µM (Serotonin, 5HT1A): 7.63% | Pass 1 (10^−5 M) % Inhibition [5]: −1.39% | Pass 1 (10^−5 M) % Inhibition [6]: 2.79% | inhibition at 10 µM [7]: 20.3% | Pass 1 (10^−5 M) % Inhibition [8]: 8.40% | inhibition at 10 µM [9]: 12.6% | Pass 1 (10^−5 M) % Inhibition (Esterase): 31.58% | inhibition at 10 µM (Complement C5a): 15.2% | Pass 1 (10^−5 M) % Inhibition [10]: 10.05% | Pass 1 (10^−5 M) % Inhibition (Estrogen): 12.80% | inhibition at 10 µM (Muscarinic, M1): 23.3% | Pass 1 (10^−5 M) % Inhibition (Sodium, Site 1): 2.74% | Pass 1 (10^−5 M) % Inhibition (Protein Kinase C, PDBu): −4.44% | Pass 1 (10^−5 M) % Inhibition (GABA A, Agonist Site): 5.81% | Pass 1 (10^−5 M) % Inhibition [11]: −19.14% | Pass 1 (10^−5 M) % Inhibition [12]: −14.06% | Pass 1 (10^−5 M) % Inhibition [13]: 11.36% | Pass 1 (10^−5 M) % Inhibition [14]: 11.04% | Pass 1 (10^−5 M) % Inhibition (Neurokinin, NK3 (NKB)): −15.24% | inhibition at 10 µM (Dopamine, D5): 2.44% | Pass 1 (10^−5 M) % Inhibition (Opiate, Mu): −4.22% | Pass 1 (10^−5 M) % Inhibition (Serotonin, 5HT2C): 1.44% | Pass 1 (10^−5 M) % Inhibition (Adrenergic, Alpha 1B): −6.30% | inhibition at 10 µM [15]: 0.51% | inhibition at 10 µM (Cannabinoid, CB2): 0.78% | Pass 1 (10^−5 M) % Inhibition (Adrenergic, Alpha 1A): −1.18% | Pass 1 (10^−5 M) % Inhibition (Leukotrine B4, LTB4): 17.06% | Pass 1 (10^−5 M) % Inhibition (Imidazoline, I2, central): 37.90% | inhibition at 10 µM (Dopamine, D1): 17.5% | Pass 1 (10^−5 M) % Inhibition [16]: 65.03% | Pass 1 (10^−5 M) % Inhibition (Galanin): −14.73% | inhibition at 10 µM [17]: -22.8% | inhibition at 10 µM (Serotonin, 5HT5A): 12% | Pass 1 (10^−5 M) % Inhibition (Leukotrine D4, LTB4): −17.11% | Pass 1 (10^−5 M) % Inhibition (Sodium, Site 2): 36.80% | Pass 1 (10^−5 M) % Inhibition (Imidazoline, I1): −0.78% | Pass 1 (10^−5 M) % Inhibition (Testosterone (cytosolic)): −7.60% | Pass 1 (10^−5 M) % Inhibition (Neurokinin, NK1): −1.72% | Pass 1 (10^−5 M) % Inhibition (Clozapine): 1.37%
